Patent US4992455A, “Thiazolidin-4-one derivatives useful for treating diseases caused by platelet activating factor” (Sumitomo Pharmaceuticals Company, Limited, priority 1987, dated 1991)
Counter-ions that a name gives are not always drawn.

Test system: fatal effect of PAF on mice
Assay: Test for inhibition of fatal effect of PAF on mice
Format: in vivo, Male ICR mice
Conditions: 10 mg/kg iv, PAF 10 μg/kg iv, 2 hours after PAF
Protocol: Male ICR mice (perchased from Charles River Co.) aged 4 weeks were anesthetized by injecting subcutaneously 100 mg/kg of Isomital® soda (sodium amobarbital supplied by Nippon Shinyaku Co., Ltd.). After 18 minutes, the mice were injected with a test compound or a solvent through tail veins. The test compound was dissolved in a 0.2 M phosphate buffer solution to a concentration of 1 mg/ml and 10 ml/kg of this solution was injected (dose of test compound 10 mg/kg). Two minutes after this administration, the mice were injected with 10 μg/kg of PAF through tail veins. The PAF was dissolved in physiological saline containing 0.25% of bovine serum albumin to a concentration of 2 μg/ml, and the mice were injected with 5 ml/kg of this solution.
After PAF administration, the mice were observed and the survival rate of mice 2 hours later was determined.

Row | SMILES | Survival rate [%]
1 | CCCCCCC[C@H]1S[C@H](c2cccnc2)N(CCN(C)C)C1=O (relative stereo) [compound 175] | 60
2 | C[C@H]1S[C@@H](c2cccnc2)N(C)C1=O (relative stereo) [compound 182, 3,5-dimethyl-2-(3-pyridyl)thiazolidin-4-one hydrochloride] | 100
3 | CCCCCC[C@H]1S[C@H](c2cccnc2)N(CCN(C)C)C1=O (relative stereo) [compound 174] | 80
